From PubChem BioAssay (NCI)
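1) Cells in 96-well plates. 2) Compound, 48 h, 5 concentrations. 3) Linear interpolation between surrounding doses. 4) Unreached endpoint = highest concentration. Here, GI50 denotes the concentration required for 50% inhibition of growth. At the TGI there is no net growth.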

Columns and labels:
Test in all cases: NCI anticancer screen, dose series, 48 h
[1] = test system: OVCAR-5 ovarian
[2] = test system: HCT-116 colon
[3] = test system: NCI-H460 lung
[4] = test system: SK-MEL-2 melanoma
[5] = test system: SNB-75 CNS
[6] = test system: HCC-2998 colon
[7] = test system: A498 renal
[8] = test system: MCF7 breast
[9] = test system: SF-539 CNS
[10] = test system: RPMI-8226 leukemia

Row | Compound | TGI [1] [µM] | TGI [2] [µM] | TGI [3] [µM] | TGI [4] [µM] | TGI [5] [µM] | TGI [6] [µM] | TGI [7] [µM] | TGI [8] [µM] | TGI [9] [µM] | TGI [10] [µM] | GI50 [1] [µM] | GI50 [2] [µM] | GI50 [3] [µM] | GI50 [4] [µM] | GI50 [5] [µM] | GI50 [9] [µM] | GI50 [7] [µM] | GI50 [10] [µM] | GI50 [8] [µM]
1 | O=c1[nH]/c(=C/c2ccc(OCc3ccccc3)cn2)c(=O)[nH]/c1=C/c1cccnc1 | > 100 | > 100 | 7.82 | > 44.1 | 36.8 | 3.16 | 6.46 | > 100 |  |  |  |  |  |  |  |  |  |  | 
2 | CCOC(=O)C1C(=O)C=C(c2cc(C)ccc2O)CC1c1cccc(Br)c1 (centres undefined) | 68.9 | 40.7 | 50.6 | 39.4 |  | 34.6 |  | 87.1 | 35.2 | 33.8 |  |  |  |  |  |  |  |  | 
3 | Nc1cc(N)c2nc(-c3ccccc3)c(Sc3ccc(F)cc3)nc2c1 | 46.1 | 28.3 | 65.8 | > 100 | 47.8 |  | 46 | 62.5 | 40 | 81.5 | 19 | 14.7 | 21.7 | 38.4 | 21.1 | 21.3 | 27.5 | 28.3 | 20
4 | COCN1C(=O)[C@@H]2C[C@@H](OC/C=C/CBr)CN2C(=O)c2ccccc21 | 49.7 | 42.7 |  | > 100 | 27.9 |  | 66.4 | 33.7 | 40.8 |  |  |  |  |  |  |  |  |  | 
5 | CC1=C2CC3=C(C)C(=O)O[C@H]3C[C@@H](C)[C@@H]2CC1 | > 100 | > 100 | > 100 | > 100 | > 100 | > 100 | > 100 |  |  | > 100 |  |  |  |  |  |  |  |  | 
6 | COc1cc(NS(C)(=O)=O)ccc1N1Cc2cnc3ccc4[nH]ccc1c4c23 | > 100 | > 100 | 43.8 | 64.6 |  |  | > 100 | > 100 |  | 46.8 |  |  |  |  |  |  |  |  | 
7 | COc1cc(/C=C/C(=O)C(C)(C)C)cc(OC)c1OC | > 100 | > 100 | 67.4 | > 100 | 68.5 | > 100 |  |  | > 100 | > 100 |  |  |  |  |  |  |  |  | 
8 | COc1ccc2[nH]c3c(C)c4ccnc(NCCCN(C)CCCNC(=O)NCCCN(C)CCCNc5nccc6c(C)c7[nH]c8ccc(OC)cc8c7c(C)c56)c4c(C)c3c2c1 | 4.13 | 5.48 | 1.34 | 4.07 | 1.56 | 1.13 | 5 |  | 1.18 | > 14.5 |  |  |  |  |  |  |  |  | 
9 | COc1cc2c(oc(=O)c3c4oc([Si](C)(C)C)cc4cc(OC)c23)c2cccc(O)c12 | > 100 | > 100 | > 100 | > 100 | > 100 | > 100 | > 100 |  | > 100 | > 100 |  |  |  |  |  |  |  |  | 
10 | CC(=O)NC(Cc1ccccc1)C(=S)N1CCCC1 (centres undefined) | > 100 | > 100 | > 100 | > 100 | > 100 | > 100 | > 100 |  | > 100 | > 100 |  |  |  |  |  |  |  |  | 
11 | c1ccc(C2(c3cc4ccccc4[nH]3)OCCO2)cc1 | > 100 | > 100 | > 100 | > 100 | > 100 |  | > 100 | > 100 | > 100 | > 100 |  |  |  |  |  |  |  |  | 
12 | O=C(CCc1nnc2s/c(=C\c3ccc(Cl)cc3Cl)c(=O)n12)Nc1cc(Cl)c(Cl)cc1Cl | > 100 | > 100 |  | > 100 | > 100 | > 100 | > 100 |  | > 100 | > 100 | > 100 | > 100 |  | > 100 |  | > 100 | > 100 | > 100 | 
13 | Cc1ccc(CCNC(=S)SCC(NC(=O)CCC(N)C(=O)O)C(=O)NCC(=O)O)cc1 (centres undefined) | 6.11 | 6.26 | 8.09 | 1.45 | 3.44 | 3.54 | 6.25 |  | 2.97 | 1.43 |  |  |  |  |  |  |  |  | 
14 | COc1nc(NC2OCC(OC(C)=O)C(OC(C)=O)C2OC(C)=O)c(N=C(C)C(C)=O)c(=O)n1C (centres undefined) | > 100 | > 100 | > 100 | > 100 | > 100 |  | > 100 |  | > 100 | > 100 |  |  |  |  |  |  |  |  | 
15 | CC(C)(C)OC(=O)NCCNC(=O)OCc1ccccc1 | > 100 |  | > 100 | > 100 | > 100 | > 100 |  | > 100 | > 100 | > 100 |  |  |  |  |  |  |  |  | 
16 | CCC1(CC)C(=O)N(C(=O)c2ccc(Cl)cc2)N(C(=O)c2ccccc2Cl)C1=O | > 100 | > 100 | 41.8 | > 100 | > 100 | > 100 |  | > 100 |  | 78.9 |  |  |  |  |  |  |  |  | 
17 | Cc1c2cccc-2c(N(C)C)cc2c1[nH]c1ccccc12 | 9.35 | 12.6 | 32.2 |  |  |  | 37.8 | 24.1 | 4.31 | 5.73 |  |  |  |  |  |  |  |  | 
18 | COC[C@@H](N=Cc1ccc(OC)cc1)C(C)C | > 100 | > 100 | > 100 | > 100 | > 100 |  |  | > 100 |  | > 100 |  |  |  |  |  |  |  |  | 
19 | O=C(N/N=C/c1cc(-c2ccccc2Cl)c(-c2ccccc2Cl)o1)c1ccncc1 | > 100 | > 100 |  | > 100 | > 100 |  | > 100 |  | > 100 | 65.9 |  |  |  |  |  |  |  |  | 
20 | O=c1[nH]c2cccccc-2c1-c1nc2ccccc2[nH]1 | > 100 | > 100 |  | 77.1 | 30.2 | > 100 |  |  | 54.3 | > 100 |  |  |  |  |  |  |  |  | 
21 | Cc1ccc(-c2c(C#N)c(O)n(NS(=O)(=O)c3ccccc3)c(=O)c2C#N)cc1 | > 100 | > 100 | > 100 | > 100 | > 100 | > 100 | > 100 | > 100 | > 100 |  |  |  |  |  |  |  |  |  | 
22 | O=C1NC(N2CCCC(CO)C2)=N/C1=C\c1ccc(O)cc1 (centres undefined) | > 100 | > 100 |  | > 100 | > 100 | > 100 |  | > 100 | > 100 | > 100 |  |  |  |  |  |  |  |  | 
23 | COc1ccccc1C1C(Cl)C(=O)N1NC(=O)Cc1ccccc1 (centres undefined) | > 100 | > 100 | > 100 | > 100 | > 100 | > 100 |  |  |  | > 100 |  |  |  |  |  |  |  |  | 
